These results are taken from BindingDB's records for doi:10.1111/cbdd.12843 (Key Laboratory for Neurodegenerative Diseases of Ministry …, 2017).

SMILES strings stand for the structures.

D(2) dopamine receptor, sequence (P14416 whole entry): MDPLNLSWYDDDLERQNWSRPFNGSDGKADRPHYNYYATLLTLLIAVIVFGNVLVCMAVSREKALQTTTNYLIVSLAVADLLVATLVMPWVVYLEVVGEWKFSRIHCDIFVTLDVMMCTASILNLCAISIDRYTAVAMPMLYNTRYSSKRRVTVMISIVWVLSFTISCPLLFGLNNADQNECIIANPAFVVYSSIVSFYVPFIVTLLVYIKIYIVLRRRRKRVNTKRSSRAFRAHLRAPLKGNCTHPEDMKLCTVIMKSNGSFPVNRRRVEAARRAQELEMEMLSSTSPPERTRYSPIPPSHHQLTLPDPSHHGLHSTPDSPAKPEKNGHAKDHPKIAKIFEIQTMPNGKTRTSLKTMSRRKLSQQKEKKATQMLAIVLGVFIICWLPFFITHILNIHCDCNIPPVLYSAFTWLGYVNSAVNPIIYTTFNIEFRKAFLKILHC

For the experiment, the target named is D(2) dopamine receptor (Homo sapiens, UniProt P14416). In words: Dopamine D2 Receptor Activity Assay. As to conditions: 37 °C. As to the method:
D2 receptor/G protein α16a co-transfected HEK293 cells (from the Shanghai Institute of Materia Medica, Chinese Academy of Sciences) were seeded in 96-wellplates and incubated overnight at 37 °C. The media were then removed, and 40 μL of 10 μM Fluo-4/AM (a calcium fluorescent probe) (Invitrogen Corporation, Carlsbad, CA, USA) was added. The plates were then incubated for 40 min at 37 °C. After the supernatant was discarded and the cells were washed with calcium buffer, 50 μL of calcium buffer containing tested compounds at the dosage range from 0.01 nM to 10 μM was added, and the plates were incubated for 10 min. The fluorescence values at an emission wavelength of 525 nm and an excitation wavelength of 485 nm were detected by the FlexStation II microplate reader (Molecular Devices, San Francisco, CA, USA), starting 15 s after 25 μL of calcium buffer containing 50 nM dopamine (an agonist of the dopamine D2 receptor) (Sigma-Aldrich, Saint Louis, MO,USA) was automatically added by the instrument.
In general, IC50 refers to the concentration that inhibits the measured activity by half. Consider `O=C1C[C@@H](c2ccc(F)cc2)Oc2cc(OCCCCN3CCC(c4noc5cc(F)ccc45)CC3)cc(O)c21` [5-Hydroxy-2-(4-fluorophenyl)-7-(4-(4-(6-fluorobenzo[d]isoxazol-3-yl)piperidin-1-yl)butoxy)chroman-4-one (7e)], for which the IC50 is 87.7 nM. As to `COc1ccc([C@@H]2CC(=O)c3c(O)cc(OCCCCN4CCN(c5ccccc5OC)CC4)cc3O2)cc1` [5-Hydroxy-2-(4-methoxyphenyl)-7-(4-(4-(2-methoxyphenyl)piperazin-1-yl)butoxy)chroman-4-one (7a)], the IC50 is 205 nM.

In turn, `COc1ccc([C@@H]2CC(=O)c3c(O)cc(OCCCN4CCN(c5ccccc5OC)CC4)cc3O2)cc1` [5-Hydroxy-2-(4-methoxyphenyl)-7-(4-(4-(2-methoxyphenyl)piperazin-1-yl)propoxy)chroman-4-one (7f)] had an IC50 of 220 nM. Turning to `COc1ccc([C@@H]2CC(=O)c3c(O)cc(OCCCCN4CCC(c5noc6cc(F)ccc56)CC4)cc3O2)cc1` [5-Hydroxy-2-(4-methoxyphenyl)-7-(4-(4-(6-fluorobenzo[d]isoxazol-3-yl)piperidin-1-yl)butoxy)chroman-4-one (7d)], the IC50 came to 51.3 nM.

With `COc1ccc([C@@H]2CC(=O)c3c(O)cc(OCCCN4CCC(c5noc6cc(F)ccc56)CC4)cc3O2)cc1` [5-Hydroxy-2-(4-methoxyphenyl)-7-(4-(4-(6-fluorobenzo[d]isoxazol-3-yl)piperidin-1-yl)propoxy)chroman-4-one (7g)], the IC50 turned out to be 116 nM.

For `COc1ccccc1N1CCN(CCCCOc2cc(O)c3c(c2)O[C@H](c2ccc(C)cc2)CC3=O)CC1` [5-Hydroxy-2-(4-methylphenyl)-7-(4-(4-(2-methoxyphenyl)piperazin-1-yl)butoxy)chroman-4-one (7b)], the IC50 worked out at 346 nM. In turn, `COc1ccccc1N1CCN(CCCCOc2cc(O)c3c(c2)O[C@H](c2ccc(F)cc2)CC3=O)CC1` [5-Hydroxy-2-(fluorophenyl)-7-(4-(4-(2-methoxyphenyl)piperazin-1-yl)butoxy)chroman-4-one (7c)] displayed an IC50 of 57.3 nM.
